Data as given in ChEMBL document CHEMBL2074221, “Breast cancer resistance protein (BCRP/ABCG2) induces cellular resistance to HIV-1 nucleoside reverse transcriptase inhibitors” (Mol Pharmacol, 2003).
*1 amine or outer side, *2 acyl side, *3 side chain or, on linkers, in order; H or OH if unused. Where a SMILES comes first, the peptide text is derived from it. Bridges are numbered along the chain shown (N, C = ends). Roman numbers before positions name the chains, in order. [ ]: non-standard residue; d: D form. Actinocin(9to1) = Cc1c2oc3c(C)ccc(C(=O)[*:1])c3nc-2c(C(=O)[*:2])c(N)c1=O; NMeV = CN[C@H](C(=O)O)C(C)C; Sar = CNCC(=O)O

Each compound was assayed against T1, Broad substrate specificity ATP-binding cassette transporter ABCG2 (Homo sapiens, UniProt Q9UNQ0) (assay: TP_TRANSPORTER: Cytotoxicity in MT-4 and MT-4/DOX500 cells).
T1 sequence (Q9UNQ0 whole entry): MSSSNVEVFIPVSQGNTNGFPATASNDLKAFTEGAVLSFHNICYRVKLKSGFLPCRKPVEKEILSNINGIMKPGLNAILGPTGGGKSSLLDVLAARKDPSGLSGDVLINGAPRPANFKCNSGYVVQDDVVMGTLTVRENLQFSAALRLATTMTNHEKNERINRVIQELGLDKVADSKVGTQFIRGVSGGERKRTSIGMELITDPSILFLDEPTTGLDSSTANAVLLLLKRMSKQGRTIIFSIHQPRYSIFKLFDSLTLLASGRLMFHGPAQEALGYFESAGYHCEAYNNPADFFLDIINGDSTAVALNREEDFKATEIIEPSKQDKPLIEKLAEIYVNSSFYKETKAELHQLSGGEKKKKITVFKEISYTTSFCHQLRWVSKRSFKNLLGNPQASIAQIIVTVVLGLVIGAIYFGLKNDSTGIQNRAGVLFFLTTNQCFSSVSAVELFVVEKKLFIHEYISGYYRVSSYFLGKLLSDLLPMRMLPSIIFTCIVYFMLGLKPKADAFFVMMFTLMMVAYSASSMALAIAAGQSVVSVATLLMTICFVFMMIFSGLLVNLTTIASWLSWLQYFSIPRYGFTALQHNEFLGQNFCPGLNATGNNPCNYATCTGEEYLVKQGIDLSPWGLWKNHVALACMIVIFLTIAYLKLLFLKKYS
Assay type: functional, cell-based

SMILES	Activity
O=C1c2c(O)ccc(O)c2C(=O)c2c(NCCNCCO)ccc(NCCNCCO)c21 [MITOXANTRONE]	substrate []
Cc1c2oc3c(C)ccc(C(=O)N[C@@H]4C(=O)N[C@H](C(C)C)C(=O)N5CCC[C@H]5C(=O)N(C)CC(=O)N(C)[C@@H](C(C)C)C(=O)O[C@@H]4C)c3nc-2c(C(=O)N[C@@H]2C(=O)N[C@H](C(C)C)C(=O)N3CCC[C@H]3C(=O)N(C)CC(=O)N(C)[C@@H](C(C)C)C(=O)O[C@@H]2C)c(N)c1=O [DACTINOMYCIN] (I: T[dV]P[Sar][NMeV] / II: T[dV]P[Sar][NMeV]; ester I:1-I:C, II:1-II:C; linker I:N-II:N via Actinocin(9to1))	substrate []
CCc1c2c(nc3ccc(OC(=O)N4CCC(N5CCCCC5)CC4)cc13)-c1cc3c(c(=O)n1C2)COC(=O)[C@]3(O)CC [IRINOTECAN]	substrate []
COc1cccc2c1C(=O)c1c(O)c3c(c(O)c1C2=O)C[C@@](O)(C(=O)CO)C[C@@H]3O[C@H]1C[C@H](N)[C@H](O)[C@H](C)O1 [DOXORUBICIN]	substrate []
CCc1c2c(nc3ccc(O)cc13)-c1cc3c(c(=O)n1C2)COC(=O)[C@]3(O)CC [7-ETHYL-10-HYDROXYCAMPTOTHECIN]	substrate []
Cc1cn([C@H]2C[C@H](N=[N+]=[N-])[C@@H](CO)O2)c(=O)[nH]c1=O [ZIDOVUDINE]	substrate []
COc1cc([C@@H]2c3cc4c(cc3[C@@H](O[C@@H]3O[C@@H]5CO[C@@H](C)O[C@H]5[C@H](O)[C@H]3O)[C@H]3COC(=O)[C@H]23)OCO4)cc(OC)c1O [ETOPOSIDE]	substrate []

Each compound was assayed against T1, Broad substrate specificity ATP-binding cassette transporter ABCG2 (assay: TP_TRANSPORTER: Anti-HIV-1 activity in MT-4 and MT-4/DOX500).
Assay type: functional, cell-based

Activity	SMILES
substrate []	Nc1ccn([C@@H]2CS[C@H](CO)O2)c(=O)n1 [LAMIVUDINE]
substrate []	Cc1cn([C@H]2C[C@H](N=[N+]=[N-])[C@@H](CO)O2)c(=O)[nH]c1=O [ZIDOVUDINE]
